The values that follow come from US10286000B2, “Retinoid X receptor-gamma agonists and retinoid X receptor-alpha antagonists for treatment of cancer” (St. Jude Children's Research Hospital, Inc., priority 2013, dated 2019).

The test system of assay [1] is Chk1 (Ser-317 phosphorylation). Kind of assay: Phospho-Chk1 ELISA. The following applies: HCT116, 0 h to 24 h. In kind it is cell-based, human. As for the experimental part: Ser-317 phosphorylation of Chk1 was determined by using the PathScan phosphor-Chk1 (Ser317) Sandwich ELISA kit (Cell Signaling). Data were normalized to the total Chk1 levels obtained from an ELISA with anti-Chk1 (total) used as the detection antibody.

The subject of assay [2] is spontaneous intestinal polyps. Kind of assay: C57BL/6J-ApcMin/J mouse model. The class given is in vivo, C57BL/6J-Apc^Min/J mice. Here is the method: The number of spontaneous intestinal polyps (arrows) was counted and compared between the two groups of mice at the end of the 3 month period. (B) The difference in adenoma growth (arrows) between the PBS- and SPIR-treated mouse groups was confirmed in intestine tissue sections. […] Total RNA were collected for cDNA preparation and the expressions of the mouse NKG2D ligands Raet1 family were analyzed by qRT-PCR. […] The number of spontaneous intestinal polyps (arrows) was counted and compared between the two groups of mice. * P≤0.05, ** P≤0.01, *** P<0.005.
By examining the intestines collected from different age groups of C57BL/6J-APC^Min/J mice (n=2-3 per group), it was discovered that none of the 8-week-old mice developed intestinal polyps. The mice started to develop polyps when they were 10 to 12-week-old and there were 15-25 intestinal adenomas established in the intestinal tracts of all the 4-month-old mice. Most of the mice died at 5 to 6 months with 25-30 adenomas in their intestines. […] The number of intestinal polyps was counted, and the intestine was fixed in 10% neutral buffered formalin, paraffin embedded, sectioned, and stained with hematoxylin and eosin. Intestine sections at 100-μm intervals were collected for the observation of neoplasia without knowledge of treatment assignment.

As for `CC(=O)S[C@@H]1CC2=CC(=O)CC[C@]2(C)[C@H]2CC[C@@]3(C)[C@@H](CC[C@@]34CCC(=O)O4)[C@H]12` [SPIR, spironolactone], in assay [1], the “Ser-317 phosphorylation of Chk1 (P-Chk1)” value is recorded as “time-dependent increase”. Besides, the “number of polyps (therapy)” value in assay [2] (4-month-old mice, twice a week for 3 weeks, vs untreated) is “significant reduction of the number of polyps”. In assay [2] (8-week-old mice, twice a week for 3 months, vs untreated), the “number of polyps formed (prevention)” value is given as “significantly less”. Besides, in assay [2] (qRT-PCR), the “expression of Raet1 ligand in the polyps” value is “significantly increased the expression of the Raet1 ligand”.
